Patent US10143771B2, “Antioxidant and antimicrobial wound dressing materials” (KCI USA, Inc., priority 2003, dated 2018)

Experiments:
Staphylococcus aureus = test: Zone of inhibition test, Procedure 2; assay type: cell-based; settings: Staphylococcus aureus on DSA plates, 37° C., over the test period (every 24 hours for 72 hours)
Description: (§1) Six 2 cm×2 cm squares of each sample are cut out in sterile conditions. On day one of the experiment, cultures of both Pseudomonas aeruginosa (ATCC 27853 and various PSI strains) and Staphylococcus aureus (provided by the Dept of Clinical Microbiology and Pathology) are incubated aerobically at 37° C. for 24 hours on Diagnostic Sensitivity Agar (DSA). After 24 hours test samples are each placed on a DSA plate and immediately wetted with 0.5 mls of a buffer solution. Three squares of sample are placed on plates inoculated with Pseudomonas aeruginosa and three are placed on plates inoculated with Staphylococcus aureus. The plates are then incubated at 37° C. for 24 hours. The zone of inhibited growth around the sample is then measured using calipers, and the test sample is placed on a new inoculated DSA plate. A swab test is carried out on the area beneath the sample to determine if the sample is bacteriostatic if not bactericidal by smearing the swab on a DSA plate and incubating it for 24 hours and then examining the growth.

[1] = system: Pseudomonas aeruginosa (ATCC 27853 and various PSI strains); test: Zone of inhibition test, Procedure 2; assay type: cell-based; settings: Pseudomonas aeruginosa on DSA plates, 37° C., over the test period (every 24 hours for 72 hours)
Description: as §1

SMILES: O=[N+]([O-])[O-].[Ag+] [silver nitrate solution (0.5%), silver nitrate]
- zone of inhibition (Staphylococcus aureus): zones of inhibition were observed
- zone of inhibition [1]: zones of inhibition were observed
